Data as given in US20180214462A1 (priority 2015, published 2018).
Entries after “also recorded” stand apart in the source; their conditions may differ.

Columns and labels:
[1] = Preventing intracellular calcium elevation with calcium chelators in vivo; conditions: data not shown
Source text: The observations that direct application of NMDA similarly enhances permeability, and that permeability increase is blocked in the presence of NMDA-R blockers (FIG. 2A) indicate that the effect of glutamate is mediated by NMDA-R. Our experiments showing increased intracellular calcium in vascular endothelium in response to glutamate are consistent with previous in vitro data showing that NMDA-mediated effects are dependent on increased intracellular calcium (Krizbai et al., 1998; Sharp et al., 2003). However, we cannot rule out non-calcium dependent signaling mechanisms and the role of other components of the neurovascular unit, such as astrocytes and pericytes, which could also respond to glutamate and signal brain endothelial cells to alter permeability (Carmignoto and Gómez-Gonzalo, 2010). […] The intracellular signaling leading to enhanced permeability is also not clear. […] The latter seems unlikely with the relatively short time delay between insult (seizure/stroke) and enhanced permeability. Modulation of transcellular transport mechanisms (e.g. intercellular adhesion molecule-ICAM mediated) (Yang et al., 2005)) may also be involved.

peri-ischemic cortex = test: Photothrombosis stroke model: BBB dysfunction in the peri-ischemic cortex; assay type: in vivo, rat
Description: Dynamic imaging of regional cerebral blood flow (rCBF) and BBB permeability measurements were performed as reported (Chassidim et al., 2014; Prager et al., 2010). The non-BBB permeable fluorescent dye, sodium fluorescein (NaFlu) was injected intravenously (1 mg/ml, 0.2 ml/injection, in 0.9% NaCl). Full-resolution (658×496 pixel) images of cortical surface vessels were obtained (5 frames/second, EMCCD camera: Andor Technology, DL-658 M-TIL, FIG. 4C) before, during and after injection of the tracer. […] Signal intensity changes over time and space were then analyzed so that each pixel was represented by intensity vs. time (IT) curve (FIG. 4E). […] A BBB permeability index (PI) (FIG. 4E) was calculated for each extra-vascular pixel as the ratio between IT curve and AIF, from the point of the second decline phase to the end of the measurement
The PI indicates how much tracer remains in extra-vascular tissue in relation to the applied amount. […] The global permeability of a region was calculated by averaging its PI values. Permeability measurements with this approach are possible only for regions with fully functional vasculature as the transfer of molecules between vessel and parenchyma is quantified. […]

cortex of rats = assay type: in vivo, rat; conditions: for increase in vessel permeability: cortical perfusion 1 mM, TTX, CNQX and PTX present
Description: (§1) Body temperature was continuously monitored and kept stable at 37±0.5° C. using a feedback-controlled heating pad (Physitemp Ltd.). Heart rate, breath rate and oxygen saturation levels were continuously monitored using STARR (Life Sciences Ltd.). A cranial section (4 mm caudal, 2 mm frontal, 5 mm lateral to bregma) was removed over the right sensory-motor cortex. The dura and arachnoid layers were removed (FIG. 4B) and the exposed cortex was continuously perfused with ACSF (Prager et al., 2010) containing (in mM): 124 NaCl, 26 NaHCO3, 1.25 NaH2PO4, […], 2 CaCl2, 3 KCl, and 10 Glucose (pH 7.4).
(§2) To block neuronal activity tetrodotoxin (TTX) (Narahashi et al., 1964) (10 μM), 6-Cyano-2,3-dihydroxy-7-nitro-quinoxaline (CNQX) (Yoshiyama et al., 1995) (50 μM), D-AP5 (Morris, 1989) (50 μM) and picrotoxin (PTX) (Yoon et al., 1993) (50 μM) were added to the perfusing solution (ACSF). To induce prolonged seizures (status epilepticus, SE), 4AP (Uva et al., 2013) (500 μM) or PTX (100 μM) were added to the ACSF. Electrocorticgram (ECoG) was recorded using bi-polar electrodes and a telemetric recording system (DSI Ltd.). In some cases, thrombotic stroke was induced using photothrombosis (Prado, 1987). Detection of calcium ions in the rat cortex was done with calcium chelators as previously reported (Stosiek et al., 2003). 50 μg of the fluorescent chelator OGB were dissolved in 4 μl of dimethyl sulfoxide) DMSO) containing 20% pluronic f-127. This mixture was diluted in […] of a loading solution containing (in mM): 150 NaCl, 2.5 KCl, 10 HEPES, in ddH2O (pH=7.4).
(§3) Dynamic imaging of regional cerebral blood flow (rCBF) and BBB permeability measurements were performed as reported (Chassidim et al., 2014; Prager et al., 2010). The non-BBB permeable fluorescent dye, sodium fluorescein (NaFlu) was injected intravenously (1 mg/ml, 0.2 ml/injection, in 0.9% NaCl). Full-resolution (658×496 pixel) images of cortical surface vessels were obtained (5 frames/second, EMCCD camera: Andor Technology, DL-658 M-TIL, FIG. 4C) before, during and after injection of the tracer. Offline image analysis was carried out using MATLAB (MathWorks, Natick, USA) and included: sub-pixel image registration, segmentation using noise filtration, hole-filling and adaptive threshold to produce a binary image, separating blood vessels from extra-vascular regions (FIG. 4D). Signal intensity changes over time and space were then analyzed so that each pixel was represented by intensity vs. time (IT) curve (FIG. 4E). An arterial IT curve (AIF) was created by spatially averaging signal intensity through time in the primary artery. A BBB permeability index (PI) (FIG. 4E) was calculated for each extra-vascular pixel as the ratio between IT curve and AIF, from the point of the second decline phase to the end of the measurement
The PI indicates how much tracer remains in extra-vascular tissue in relation to the applied amount. PI>1 indicates tracer accumulation and defines BBB dysfunction. Fitting a PI to each extra-vascular pixel enabled spatial mapping of BBB permeability (FIG. 4F). The PI for each vascular pixel was set to 0, and therefore vessels were excluded from the map. The global permeability of a region was calculated by averaging its PI values. Permeability measurements with this approach are possible only for regions with fully functional vasculature as the transfer of molecules between vessel and parenchyma is quantified. Increased permeability in damaged vessels is not depicted here. […]

exposed rat neocortex = test: NMDA-R antagonists during 4AP-induced recurrent seizures: BBB permeability, ECoG, vessel diameter; assay type: in vivo; conditions: 4AP seizures, Memantine 40 mg/kg IP or D-AP5 100 μM topical; for seizure-induced permeability increase / BBB damage: pooled, p=0.02
Description: as §3
ECoG was recorded using a telemetric system (DSI Ltd.). Two electrodes were implanted, one attached to an intra-cranial screw adjacent to the exposed cortex, and the second placed over the exposed cortex while secured with bone wax and dental cement. In-house MATLAB scripts were used to display and record signals for post-processing. Signals were sampled at 200 Hz and filtered using a MATLAB simulated Butterworth filter, so to display only the desired frequency band (10-40 Hz). The mean power was calculated using the MATLAB “pwelch” function.
Since prolonged and recurrent epileptic seizures may also be associated with vascular pathology and damage to the BBB through the activation of NMDA-R, the effect of NMDA-R antagonists after the induction of recurrent seizures in anesthetized rats was tested. The epileptogenic substance 4AP was applied on the surface of the brain while monitoring ECoG.
Animals were treated with either topical application of the specific NMDA-R blocker D-AP5 (100 μM) (prior to and during seizure induction), or systemically with the FDA approved memantine (40 mg/kg, intraperitonealy, immediately following seizure onset).

[2] = system: vessels' wall (rat neocortex); test: Calcium imaging (OGB, probe-based confocal laser endomicroscopy) in vessel wall after drop application of glutamate; assay type: in vivo
Description: as §2
The exposed cortex was incubated with the final mixture for 1 hour. Probe-based confocal laser endomicroscopy (PCLE) was performed using Cellvizio dual band (Mauna Kea Technologies Ltd.) at 488 and 660 nm. […]
In control experiments, brains were exposed to ACSF for 60-120 min, no significant change in permeability was measured, excluding a time-dependent increase in permeability (“control”, −5.11±3.07%, n=16, P=0.7, Wilcoxon, FIG. 2A). […]

[3] = system: cultured brain endothelial cells; conditions: cited from earlier work
exposed cortex = test: Focally-induced cortical seizures (4AP or PTX): intravital fluorescence angiography of vessel diameter and BBB permeability; assay type: in vivo, rat; conditions: for increase in vessel diameter: seizures induced by 4AP (n=6) or PTX (n=2), pooled n=8, immediate
Description: All experimental procedures in animals were approved by the Ben-Gurion University ethics committee for animal testing. Unless otherwise mentioned, all materials were purchased from Sigma-Aldrich ltd. Surgical procedures in male Spraugue-Dawley rats (200-380 g BW) were performed as previously reported (Prager et al., 2010). Rats were deeply anesthetized by intraperitoneal administration of either isoflurane or ketamine (100 mg/ml, 0.08 ml/100 gr) and xylasine (20 mg/ml, 0.06 ml/100 gr). The tail vein was catheterized, and animals were placed in a stereotactic frame (FIG. 4A) under a SteREO Lumar V12 fluorescence microscope (Zeiss, Gottingen, Germany).
as §1, §2, §3
The PI indicates how much tracer remains in extra-vascular tissue in relation to the applied amount. PI>1 indicates tracer accumulation and defines BBB dysfunction. Fitting a PI to each extra-vascular pixel enabled spatial mapping of BBB permeability (FIG. 4F). The PI for each vascular pixel was set to 0, and therefore vessels were excluded from the map. The global permeability of a region was calculated by averaging its PI values. […]

[4] = 30 minutes from seizure onset, recurrent seizures, n=7
[5] = ~10 minutes from seizure onset, 4AP or PTX pooled, n=8

CC(=O)OCOC(=O)CN(CC(=O)OCOC(C)=O)c1ccccc1OCCOc1ccccc1N(CC(=O)OCOC(C)=O)CC(=O)OCOC(C)=O [BAPTA-AM]
vascular side effect in vivo [1]: massive vasoconstriction and associated ischemia

N[C@H](CCCP(=O)(O)O)C(=O)O [D-AP5, R-2-amino-5-phosphonopentanoate]
averaged percent increase in permeability in the peri-infarct cortex (peri-ischemic cortex; 30 and 60 min following PT, n=7, p=0.13): non-significant change
spatial progression of BBB dysfunction in the peri-ischemic region (peri-ischemic cortex; 30 and 60 minutes after clot induction, vs absence of D-AP5): significantly reduced; also recorded: significantly diminishes
change in vessel permeability by glutamate in the presence of antagonist (cortex of rats; glutamate + D-AP5 50 μM): −3.81±4.34%
seizure intensity (ECoG) (exposed rat neocortex): no impact
seizure-induced permeability increase / BBB damage (exposed rat neocortex): diminished

N[C@@H](CCC(=O)O)C(=O)O [glutamate]
increase in vessel permeability (cortex of rats): 18.15%±5.9%
change in vessel diameter (cortex of rats; glutamate application with TTX, CNQX, PTX): 3.12±2.24%
shift in vascular diameter (cortex of rats; topical glutamate 1 mM with axonal and synaptic transmission blockers): not inducing a shift in vascular diameter
calcium signal in the vessel wall ([2]; drop application of glutamate): Rise in calcium signal
duration of increase in endothelial intracellular calcium ([2]; drop application of glutamate 0.01-1 mM, n=109): 12.5 ± 1.3 s
permeability of cultured brain endothelial cells [3]: increase permeability
tight junction protein occludin ([3]; glutamate 1 mM, NMDA-R mediated): reduction in the levels and cellular redistribution
electrical resistance ([3]; glutamate 1 mM): lower electrical resistance

CC12CC3CC(C)(C1)CC(N)(C3)C2 [memantine]
seizure intensity (ECoG) (exposed rat neocortex): no impact
seizure-induced permeability increase / BBB damage (exposed rat neocortex): diminished

CN[C@H](CC(=O)O)C(=O)O [NMDA, N-methyl-d-aspartate]
increase in vessel permeability (cortex of rats): 18.44±7.58%

picrotoxin [PTX]
increase in vessel permeability to NaFlu (exposed cortex; [4]): 14.17±4.65%
increase in vessel diameter (exposed cortex): 10.05±1.01%
increase in vessel permeability to NaFlu (exposed cortex; [5]): 20.01±7.24%

Nc1ccncc1 [4AP]
increase in vessel permeability to NaFlu (exposed cortex; [4]): 14.17±4.65%
increase in vessel diameter (exposed cortex): 10.05±1.01%
increase in vessel permeability to NaFlu (exposed cortex; [5]): 20.01±7.24%
